Experiments:
[1] = tested on: CMA in HSC from KFERQ-Dendra mice; experiment: KFERQ-Dendra CMA reporter in HSC after in vivo activation; set-up: species or system mouse
From the text: Mice. Hematopoietic system specific L2A KO mice were created by crossing C57BL/6 Vav-iCre mice with C57BL/6 L2Af/f mice. […] For the aging studies, 3-4 months (labeled as 4 m) and 25-30 m (labeled as >25 m) male mice were used in the young and old group, respectively. KFERQ-Dendra2 transgenic mice and KFERQ-Dendra mice defective in CMA (KFERQ-Dendra-L2AKO) were generated as described before. […] Young and old controls were similarly injected with tamoxifen. […] KFERQ-Dendra mice with extra copy of human L2A (KFERQ-Dendra-hL2AOE) were generated by breeding KFERQ-Dendra male mice with hL2AOE mice. […] Bone marrow was analyzed at the same times. Data is from the analysis 8 days post-injection, unless otherwise specified. For serial 5FU injections, mice were injected every week and 7 days post injection blood was taken and blood counts measured as above and dead mice and time of death were registered. […] The CMA activator (CA 20 mg/Kg b.w. per mouse day for 2 months) was administered orally in the form of sucralose gelatin agar pills.
Immunofluorescence staining. HSC or myeloid progenitor cells were directly sorted into 16-well slides pre-coated with Cell-Tak Cell Tissue Adhesive (Coming, 354240) and then fixed with 4% PFA for 15 min at room temperature (RT). For LAMP2A, LAMP1, total human LAMP2 and FADS2 staining, slides were washed with PBS and incubated with blocking buffer (5% goat serum/0.3% TrionX-100 in PBS) for 1 hour at RT and incubated ovemight at 4° C. with the first antibody diluted in 1% BSA/0.3% TritonX-100 followed by 40 min incubation at RT with fluorescence-conjugated secondary antibodies. Cells were washed 3 times with PBS and mounted with mounting medium with DAPI (Southern biotech). […] Oxidized proteins were detected with OxyICC Oxidized Protein Detection Kit from Sigma (S7350) and protein inclusions were detected with PROTEOSTAT Aggresome detection kit from ENZO (ENZ-51035) following manufacturer's instructions. […] For analysis of CMA activity using direct fluorescence and the KFERQ-Dendra CMA reporter, cells isolated from KFERQ-Dendra2 transgenic mice were fixed with 2% PFA for 5 min at RT and mounted for direct puncta counting or subjected for immunofluorescence as described above. Quantification was performed in TIFF converted images upon thresholding using the 3D object counter tool of Image J software (NIH). Average number of puncta per cell was determined for each of the cells in a field and at least 3 different fields per animal were counted. Where indicated, we also calculated the percentage of cells active for CMA, defined as those with at least two Dendra positive puncta. […] CMA flux was calculated as the increase in number of Dendra positive puncta upon leupeptin treatment. […]

[2] = tested on: Bead sorted CD34+ MNC from patients over 55 years of age; experiment: FACS quantification of phenotypical HSC (HSPCs) in CD34+ MNC after 72 hours in HSC maintenance cultures; format: cell-based, human; settings: for long-term HSCs (LT-HSC; CD90+, CD49f+, CD34+, CD38−, Lin-): short term ex vivo culture vs vehicle (FIG. 17)
Method: FIG. 15. Representative FACS data and gating strategy. Bead sorted CD34+ MNC from patients over 55 years of age were treated with compounds 77.1, 77.43, 77.36, B13, B19 or vehicle control for 72 hours in HSC maintenance cultures. The experimental readout is quantification of phenotypical HSC (HSPCs) by FACS analysis. […] Results also identified a positive trend in HSC number from a HC derived specimen.

Ctrl and L2AKO HSC = experiment: Colony formation and serial re-plating assay with Ctrl and L2AKO HSC with supplemented media; format: cell-based, mouse
From the text: Colony formation and serial re-plating assays. […] Colonies were scored after 10 to 12 days for mouse and 14 to 16 days for human cells using an Inverted Infinity and Phase Contrast Microscope (Fisher Scientific).

HSC from old (22 m) mice = settings: daily injections of GLA (1mg/kg bw) for 7 weeks vs saline
Method: Mice. […] For the aging studies, 3-4 months (labeled as 4 m) and 25-30 m (labeled as >25 m) male mice were used in the young and old group, respectively. […] For GLA supplementation, old mice (>25 m) were injected with either saline or GLA (1mg/kg bw) for 40 days.
Colony formation and serial re-plating assays. Sorted mouse HSC (180 cells Lin−/cKit+/Scal+/CD48−/CD150+) or CD34-enriched human HSPC (5,000 cells) were plated into methylcellulose media ([sequence] Technologies, MethoCult M 3434 for mouse or MethoCult H4434 for human) according to the manufacturer's protocols. Colonies were scored after 10 to 12 days for mouse and 14 to 16 days for human cells using an Inverted Infinity and Phase Contrast Microscope (Fisher Scientific). […] Where indicated, media was supplemented with 100 nM FADS2 inhibitor SC-26196 (Sigma, PZ0176), 100 μM γ-linolenic fatty acid (GLA) (Sigma, L2378), 100 μtM NAC (Sigma, A7250) or 5 mM Methyl-pyruvate (Sigma, 371173).

[3] = tested on: human CD34+ cells from old (>65 year) multi-myeloma patients; settings: CD34+ cells from old (>65 years) patients, ex vivo GLA
From the text: Human hematopoietic stem and progenitor cells. Mobilized peripheral blood from multiple myeloma patients (59-71 years old) was enriched for mononuclear cells by density gradient centrifugation using Ficoll-Paque PLUS (GE Healthcare). Mono-nuclear cells were further enriched for CD34+ cells using immunomagnetic bead sorting (CD34 MicroBead Kit, human; Miltenyi Biotec) according to the manufacturer's protocol. The isolated CD34+cells were then used for LTC-IC or colony formation assays. LTC-IC assay. To assess LTC-IC frequencies, serial dilutions of FACS-sorted mouse Lin-Sca-l+c-Kit+ (LSK) cells or CD34+enriched human HSPCs were plated in MyeloCult [MUT] for mouse or MyeloCult [MUT] for human ([sequence] Technologies) mixed at 50:50 ratio with primary mouse stroma cell-conditioned medium or with HS5-conditioned medium for human cells. For each cell dose (1:10, 1:20, 1:40, 1:80, 1:160 for mouse LSK cells, 1:50, 1:100, 1:200, 1:400, 1:800 for human HSPC), 10 technical replicates were performed. […] For CFU-C counting, in the case of mouse samples, wells containing any type of colonies were scored as positive, while in the case of human samples, only wells with GEMM colonies were scored as positive. […]

## O=c1[nH]cc(F)c(=O)[nH]1 [5FU, 5-fluorouracil]
[1]; after 5FU injection
  time of CMA returning to basal levels in HSC: 16 days
  time of maximal CMA upregulation in HSC: 8 days
[1]; after single injection of 5FU
  CMA activity in HSC (Dendra puncta per cell): further upregulate CMA

## CC(=O)Nc1ccc(-c2cnc3cc(Cl)ccc3n2)cc1 [CA77.1, N-(4-(6-chloroquinoxalin-2-yl)phenyl)acetamide]
[2]; AML patient derived specimen, 72 hours vs vehicle
  number of phenotypical HSCs by FACS: detectable and significant increase in HSCs
[2]
  long-term HSCs (LT-HSC; CD90+, CD49f+, CD34+, CD38−, Lin-): significantly more long-term HSCs (LT-HSC) than vehicle

## Clc1ccc2nc(-c3ccc(Nc4cnccn4)cc3)cnc2c1 [CA77.36, N-(4-(6-chloroquinoxalin-2-yl)phenyl)pyrazin-2-amine]
[2]
  long-term HSCs (LT-HSC; CD90+, CD49f+, CD34+, CD38−, Lin-): significantly more long-term HSCs (LT-HSC) than vehicle

## Cc1nnc(-c2ccc(-c3cnc4cc(Cl)ccc4n3)cc2)[nH]1 [CA77.43, 6-chloro-2-(4-(5-methyl-4H-1,2,4-triazol-3-yl)phenyl)quinoxaline]
[2]
  long-term HSCs (LT-HSC; CD90+, CD49f+, CD34+, CD38−, Lin-): significantly more long-term HSCs (LT-HSC) than vehicle

## CCCCC/C=C\C/C=C\C/C=C\CCCCC(=O)O [GLA, γ-linolenic acid]
Ctrl and L2AKO HSC; L2AKO HSC, GLA supplemented media, ex vivo
  self-renewal capacity of CMA-defective (L2AKO) HSC (colony numbers): restored their self-renewal capacity ex vivo
HSC from old (22 m) mice
  HSC function by colony formation: improved HSC function as assessed by colony formation
[3]
  number of functional human stem cells in long-term cultures (LTC-IC): increased the number of functional human stem cells in long-term cultures

## CC(=O)N[C@@H](CS)C(=O)O [NAC, N-acetylcysteine]
Ctrl and L2AKO HSC; L2AKO HSC, NAC from the 1st plating
  long-term colony initiation abilities of L2AKO HSC (total colony numbers in 3rd plating): restored their ex vivo long-term colony initiation abilities

## N#CC(CCCN1CCN(/N=C/c2cccnc2)CC1)(c1ccccc1)c1ccccc1 [SC-26196]
Ctrl and L2AKO HSC; control cells, 100 nM FADS2 inhibitor SC-26196, first plating
  self-renewal ability of control HSC (colony numbers): sufficient to reduce self-renewal ability of control cells

## polyI:C
[1]; 48 hours after injection of PolyI:C vs vehicle
  CMA activity in HSC (Dendra puncta per cell): upregulated CMA

— US20240156872A1, “Use of Chaperone-Mediated Autophagy Activators For Treating Or Preventing Blood Cancers And Myelodysplastic Syndromes And Enriching Hematopoietic Stem Cell Populations” (ALBERT EINSTEIN COLLEGE OF MEDICINE, priority 2021, published 2024)
